The results in this text go back to paper PMC5081312, “Antifouling phenyl ethers and other compounds from the invertebrates and their symbiotic fungi collected from the South China Sea” (AMB Express, 2016).

As a reminder, the LC50 is the concentration lethal to half of the exposed cells or organisms. The low end stands for greater toxicity, the high end for lower toxicity. By EC50 is commonly meant the concentration at which the effect is half-maximal.

Starred links: 1 amine or outer side, 2 acyl side, 3 side chain; linkers in the order of their positions; H or OH if unused. Non-standard residues stand in square brackets, D forms with d. Residues, ends and D or L forms follow the SMILES beside them. X1 = O=C(c1cc(O)ccc1N[*:1])[*:2]

Data set [1] has as its system cyprids of barnacle B. amphitrite. Briefly: Anti-larval settlement bioassay (antifouling activity and larval toxicity). The format is in vivo. Conditions: for LC50/EC50 ratio (therapeutic ratio): B. amphitrite cyprids, ratio >15 considered non-toxic; for LC50 / EC50: cyprids of B. amphitrite, 48 h at 28 °C; for LC50: concentration where 50% of larvae were dead; for EC50: concentration where 50% of larvae were inhibited to settle vs negative control, read-out: EC50 (larval settlement inhibition); for inhibition of larval settlement in preliminary screening: B. amphitrite, at 25.0 μg ml^−1. On the procedure:
(§1) The newly released nauplii were screened with the aperture of 90 μm. The newly released nauplii were raised in filtered seawater (FSW) at 28 °C with mild aeration and fed with Chaetoceros gracilis Schutt at 1 × 10^6 cells ml^−1. The nauplius larvae transformed into cyprids (ready to attach and metamorphose) after 3.5 days. Newly transformed cyprids were kept in filtered seawater at 4 °C overnight before being used in the anti-larval settlement bioassay.
(§2) The antifouling activity was evaluated as larval settlement inhibition against the cyprids of barnacle B. amphitrite using 24-well polystyrene plates (Nunc, Naperville, CA, USA). Each compound was dissolved in a stock solution of DMSO with the concentration of 50 mg ml^−1, and then diluted 1000 times with FSW to 50 μg ml^−1. The compound was further transferred into FSW to make up the following test solution with the concentrations ranging from 25 to 0.50 μg ml^−1. One millilitre of the test solution and 16–20 larvae were allocated to each well of the 24-well plate. Each concentration had three replicate wells. The plates were cultivated in darkness for 48 h at 28 °C. The effects of the test compounds against the larvae settlement were determined by examining the plates under a dissecting microscope to check for (1) settled larvae (attached and metamorphosed), (2) swimming larvae, as well as (3) any possible toxic effects of the treatments (dead and paralyzed). The number of the settled larvae was expressed as a percentage of the total number of larvae per well. Each compound was tested by triplicate experiments using three different batches of larvae.
(§3) The EC50 and LC50 values of each compound were calculated according to the records of anti-larval settlement experiments. […] Then a concentration–response curve was plotted and a tread line was set up.

Test in data set [2]: as above
The format is in vivo. Conditions: Balanus (Amphibalanus) amphitrite (barnacle cyprid larvae), in vivo, other: larvae immersed in test solution; cyprids of B. amphitrite, 48 h at 28 °C, concentration where 50% of larvae were dead. How it is done: as §1, §2, §3

For the compound “1-Formyl-4-methyl-7-isopropylazulene [compound 17]”, in data set [1], the “LC50/EC50 ratio (therapeutic ratio)” value was >16.1, the 50% lethal concentration (LC50) was > 236 µM and the EC50 was 14.7 µM.
On to `CC(C)C(C)CCC(C)C1CCC(C2=CC(O)C3CC(O)CCC3(C)C2=O)C1(C)CCO` (mixture of isomers) [compound 24, (24R)-and(24S)-3β,6α,11-Trihydroxy-methyl-9,11-seco-5α-cholest-7-en-9-one], for which, in data set [1], the LC50 is > 112 µM and the EC50 is > 55.8 µM.
In turn, `CC(=O)Oc1cc(C)cc(Oc2cc(C)cc(O)c2)c1` [compound 9, 3-O-acetyl-diorcinol] gave a median lethal concentration (LC50) at 48 h in data set [2] of 64.3 µM.
On the same count and under the same terms, next, `CC(=O)Oc1cc(C)cc(Oc2cc(C)cc(OC(C)=O)c2)c1` [compound 11, 3,3′-O-diacetyl-diorcinol]: 49.4 µM.
With `CC1=CC(=O)c2c1cc(C(C)C)c(C=O)c2C` [compound 19, 3,8-Dimethyl-5-isopropyl-6-formylindenone], in data set [1], the median lethal concentration (LC50) was > 219 µM and the concentration for a half-maximal effect (EC50) was > 110 µM.
For `CC1=CC(=O)c2c(C)cc(C(=O)C(C)C)cc21` [compound 20, Ochracenoid B], in that order: > 219 µM and > 110 µM.
Consider `CC(C)CCC(C)C1CCC(C2=CC(O)C3CC(O)CCC3(C)C2=O)C1(C)CCO` (stereo not drawn) [compound 23, 3β,6α,11-Trihydroxy-24-nor-9,11-seco-5α-cholest-7-en-9-one], for which, in data set [1], the “inhibition of larval settlement in preliminary screening” value is “completely inhibited”, the LC50 was 59.5 µM and the EC50 came out at 10.7 µM.
For `CC(C)C=CC(C)C1CCC(C2=CC(O)C3CC(O)CCC3(C)C2=O)C1(C)CCO` (stereo not drawn) [compound 25, (22E)-3β,6α,11-Trihydroxy-24-nor-9,11-seco-5α-cholesta-7,22-dien-9-one], in that order: “completely inhibited”, 59.8 µM and 29.9 µM.
For `CC(C)CCCC(C)C1CCC(C2=CC(O)C3CC(O)CCC3(C)C2=O)C1(C)CCO` (stereo not drawn) [compound 26, 3β,6α,11-Trihydroxy-9,11-seco-5α-cholest-7-en-9-one], in that order: “completely inhibited”, 57.6 µM and 28.6 µM.
Take `C=C(CCC(C)C1CCC(C2=CC(O)C3CC(O)CCC3(C)C2=O)C1(C)CCO)C(C)C` (stereo not drawn) [compound 27, 3β,6α,11-Trihydroxy-9,11-seco-5α-cholesta-7,24(28)-dien-9-one]: in data set [1], the median lethal concentration (LC50) was > 56.1 µM and the EC50 is > 56.1 µM.
In the case of `CC(C)C(C)C=CC(C)C1CCC(C2=CC(O)C3CC(O)CCC3(C)C2=O)C1(C)CCO` [compound 28, (22E,24R)-3β,6α,11-trihydroxy-24-Methyl-9,11-seco-5α-cholesta-7,22-dien-9-one], in data set [1], the “LC50/EC50 ratio (therapeutic ratio)” value is on record as >1.25, the LC50 is > 56.1 µM and the concentration for a half-maximal effect (EC50) stood at 44.8 µM.
As to `CC(C)CC=CC(C)C1CCC(C2=CC(O)C3CC(O)CCC3(C)C2=O)C1(C)CCO` (stereo not drawn) [compound 29, (22E)-3β,6α,11-Trihydroxy-9,11-seco-5α-cholesta-7,22-dien-9-one], in data set [1], the LC50 was 57.9 µM and the EC50 was 14.7 µM.
For `CC(=O)OCCC1(C)C(C2=CC(OC(C)=O)C3CC(O)CCC3(C)C2=O)CCC1C(C)C=CCC(C)C` (stereo not drawn) [compound 30, (22E)-6,11-Diacetoxy-3-hydroxy-9,11-seco-5α-cholesta-7,22-dien-9-one], in data set [1], the “LC50/EC50 ratio (therapeutic ratio)” value is 16.1, the LC50 was 96.8 µM and the EC50 came to 6.01 µM.
For `CC(=O)OCCC1(C)C(C2=CC(OC(C)=O)C3CC(OC(C)=O)CCC3(C)C2=O)CCC1C(C)C=CCC(C)C` (stereo not drawn) [compound 31, (22E)-3,6,11-Triacetoxy-9,11-seco-5α-cholesta-7,22-dien-9-one], in that order: 8.00, 96.8 µM and 12.1 µM.
Regarding `C[C@]12CCC[C@H](O1)c1c(cc3c(c1O)C(=O)c1c(O)cc(O)cc1C3=O)O2` [compound 32, Averufin], in data set [1], the “LC50/EC50 ratio (therapeutic ratio)” value is >14.7, the median lethal concentration (LC50) was > 136 µM and the half-maximal effective concentration (EC50) was 9.27 µM.
In the same order, the values of `COc1cc(O)cc2c1C(=O)c1c(cc3c(c1O)[C@H]1O[C@](C)(CC[C@@H]1O)O3)C2=O` [compound 33, 8-O-methylnidurufin] are >8.75, > 126 µM and 14.4 µM.
Turning to `C[C@]12CC[C@H](O)[C@H](O1)c1c(cc3c(c1O)C(=O)c1c(O)cc(O)cc1C3=O)O2` [compound 34, Nidurufin], in data set [1], the 50% lethal concentration (LC50) is > 130 µM and the 50% effective concentration (EC50) is > 65.1 µM.
Turning to `COc1cc(O)cc2c1C(=O)c1c(O)cc(CO)cc1C2=O` [compound 35, Questinol], in data set [1], the LC50 is > 167 µM and the EC50 was > 83.3 µM.
Regarding `COc1cc(O)cc2c1C(=O)c1c(O)cc(CO)c(O)c1C2=O` [compound 36, ω-Hydroxyrubrocristin], in data set [1], the 50% lethal concentration (LC50) is > 158 µM and the EC50 was > 79.1 µM.
Turning to `COc1cc(O)c(-c2c3c(c(O)c4c(OC)cc(O)cc24)C(=O)C=C(C)C3=O)c2cc3c(c(O)c12)C(=O)C[C@@](C)(O)C3` [compound 37, Asperinine A], in data set [1], the “LC50/EC50 ratio (therapeutic ratio)” value is listed as >2.88, the LC50 was > 87.7 µM and the 50% effective concentration (EC50) was found to be 30.5 µM.
For `COc1cc(O)c(-c2c3c(c(O)c4c(OC)cc(O)cc24)C(=O)C=C(C)C3=O)c2cc3c(c(O)c12)C(=O)C[C@@](C)(O)C3` [compound 38, Asperinine B], in that order: >2.22, > 87.7 µM and 39.5 µM.
In the case of `CC[C@H](O)c1cc(O)c2c(c1)C(=O)c1cc(O)cc(O)c1C2=O` [compound 39, Rhodoptilometrin], in data set [1], the “LC50/EC50 ratio (therapeutic ratio)” value came to 13.4, the LC50 stood at 159 µM and the EC50 was 11.9 µM.
As to `C=CC(C)(C)c1[nH]c2ccc(CC=C(C)C)cc2c1C=C1NC(=O)C2(C=C3c4cc(O)cc(OC)c4C(=O)c4c(O)cc(C)c(c43)O2)NC1=O` (centres unmarked) [compound 41, 7-O-methylvariecolortide A], in data set [1], the median lethal concentration (LC50) was > 74.5 µM and the EC50 is > 74.5 µM.
As for `C=CC(C)(C)c1[nH]c2ccccc2c1/C=C1\NC(=O)C2(C=C3c4cc(O)cc(O)c4C(=O)c4c(O)cc(C)c(c43)O2)NC1=O` (centres unmarked) [compound 42, Variecolortide B], in data set [1], the median lethal concentration (LC50) was > 84.9 µM and the concentration for a half-maximal effect (EC50) was > 84.9 µM.
Turning to `COc1cc(O)cc(C)c1C(=O)O[C@@H]1[C@H](O)[C@@H](CO)O[C@H]1n1ccc(=O)[nH]c1=O` [compound 48, Kipukasin H], in data set [1], the LC50 is > 123 µM and the 50% effective concentration (EC50) was > 61.3 µM.
In the same order, the values of `COc1cc(C)c(C(=O)O[C@@H]2[C@H](O)[C@@H](CO)O[C@H]2n2ccc(=O)[nH]c2=O)c(OC)c1` [compound 49, Kipukasin E] are > 59.2 µM and > 59.2 µM.
For `COc1cc(C)c(C(=O)O[C@H]2[C@@H](O)[C@H](n3ccc(=O)[nH]c3=O)O[C@@H]2CO)c(OC)c1` [compound 50, Kipukasin D], in that order: > 59.2 µM and > 59.2 µM.
Turning to `COc1cc(C)c(C(=O)O[C@@H]2[C@H](OC(C)=O)[C@@H](COC(C)=O)O[C@H]2n2ccc(=O)[nH]c2=O)c(OC)c1` [compound 51, Diacetylkipukasin E], in data set [1], the “LC50/EC50 ratio (therapeutic ratio)” value is >2.22, the 50% lethal concentration (LC50) is > 98.8 µM and the half-maximal effective concentration (EC50) is 44.5 µM.
In the case of `COc1cc(C)c(C(=O)O[C@H]2[C@@H](OC(C)=O)[C@H](n3ccc(=O)[nH]c3=O)O[C@@H]2COC(C)=O)c(OC)c1` [compound 52, Diacetylkipukasin D], in data set [1], the 50% lethal concentration (LC50) is > 98.8 µM and the EC50 was > 49.4 µM.
In the same order, the values of `COC(=O)c1ccccc1NC(=O)[C@H](CC[S+](C)[O-])NC(=O)c1cnc2c(n1)c(=O)n(C)c(=O)n2C` (some centres unmarked) [compound 53, Penilumamide] are > 96.9 µM and > 96.9 µM.
Regarding `C[C@H](NC(=O)c1cnc2c(n1)c(=O)n(C)c(=O)n2C)C(=O)Nc1ccccc1C(N)=O` [compound 54, Penilumamide D], in data set [1], the 50% lethal concentration (LC50) was > 58.8 µM and the half-maximal effective concentration (EC50) is > 58.8 µM.
With `C[C@@H]1NC(=O)[C@H](Cc2ccc(O)cc2)NC(=O)c2cc(O)ccc2NC(=O)[C@@H]2CCCN2C(=O)[C@H](C)NC1=O` [compound 55, Asperpeptide A] (cyclo(AAP[X1]Y)), in data set [1], the LC50 was > 46.6 µM and the EC50 was > 46.6 µM.
Consider Variecolortide C [compound 40], for which, in data set [1], the LC50 was > 82.9 µM and the EC50 is > 82.9 µM.
